Tested on: D. melanogaster nAChRs
Test: Comparison of agonist activity between nAChRs expressed in X. laevis oocytes (one-way ANOVA, Kruskal-Wallis)
Format: cell-based
Procedure: We minimised the use of X. laevis according to the UK Animals (Scientific Procedures) Act, 1986. […] Oocytes were defolliculated after collagenase treatment in Ca^2+-free standard oocyte saline (Ca^2+-free SOS). cRNAs of the nAChR subunits and co-factors mixed at a concentration of 0.1 mg/mL was injected into oocytes at a volume of 50 nL. Then the oocytes were incubated in the incubation medium (SOS supplemented with sodium pyruvate (Nacalai Tesque, #13058–12), penicillin-streptomycin (MilliporeSigma, #P4333), gentamycin (Nacalai Tesque, #16672–04), and 4% horse serum (Thermo Fisher Scientific, #26050–070) for 3−4 days prior to electrophysiology.
Each defolliculated X. laevis oocyte was secured in a Perspex recording chamber and perfused with the standard oocyte saline (SOS) containing 0.5 μM atropine (SOSA) at a flow rate of 7−10 mL/min [48]. Two glass electrodes filled with 2 M KCl were impaled into each oocyte and the membrane potential was clamped at -100 mV. […] The peak amplitude of the response was measured and analysed by pCLAMP (Molecular Devices, USA).
Y=Imax/1+10^(logEC50‐X)nH
Where Y is the normalised response, X is log[ligand (M)], EC50 is the half maximal concentration (M), Imax is the maximum normalised response and nH is the Hill coefficient.
Prism software was employed for the statistical analyses. […] One-way ANOVA was used to analyse the differences of the ligand agonist activity in terms of pEC50 on the various nAChRs expressed in X. laevis as well as data obtained with D. melanogaster larvae and adults.

Q: For `CC(=O)OCC[N+](C)(C)C` [ACh, acetylcholine], which “Difference of pEC50 values, nAChRs compared” value (“Difference … nAChRs compared” below) (Dα1/Dα2/Dα3/Dβ1/Dβ2 vs. Dα1/Dα2/Dβ1/Dβ2/Dβ3) is on record?
A: Its value is 0.07.

Q: What about the “Difference … nAChRs compared” value (Dα1/Dα2/Dα3/Dβ1/Dβ2 vs. Dα1/Dα3/Dα4/Dβ1/Dβ2) of the same compound?
A: The value was -0.30.

Q: And the “Difference … nAChRs compared” value (Dα1/Dα2/Dα3/Dβ1/Dβ2 vs. Dα1/Dα3/Dβ1/Dβ2/Dβ3)?
A: Its value is -1.34.

Q: What about the “Difference … nAChRs compared” value (Dα1/Dα2/Dα3/Dβ1/Dβ2 vs. Dα2/Dα3/Dα4/Dβ1/Dβ2) of the same compound?
A: Its value is -1.00.

Q: What about the “Difference … nAChRs compared” value (Dα1/Dα2/Dα3/Dβ1/Dβ2 vs. Dα2/Dα3/Dβ1/Dβ2/Dβ3) of the same compound?
A: The value was -1.52.

Q: What about the “Difference of pEC50 values” (Dα1/Dα2/Dα3/Dβ1 vs. Dα1/Dα2/Dα3/Dβ1/Dβ2) of the same compound?
A: Its value is 0.94.

Q: What about the “Difference of pEC50 values” (Dα1/Dα2/Dα3/Dβ1 vs. Dα1/Dα2/Dβ1/Dβ2) of the same compound?
A: The value was 0.51.

Q: What about the “Difference of pEC50 values” (Dα1/Dα2/Dα3/Dβ1 vs. Dα1/Dα3/Dβ1/Dβ2) of the same compound?
A: Its value is -1.00.

Q: What about the “Difference of pEC50 values” (Dα1/Dα2/Dα3/Dβ1 vs. Dα1/Dβ1/Dβ2) of the same compound?
A: The value was 0.68.

Q: What about the “Difference of pEC50 values” (Dα1/Dα2/Dα3/Dβ1 vs. Dα3/Dβ1/Dβ2) of the same compound?
A: The value was -0.76.

Q: And the “Difference of pEC50 values” (Dα1/Dα2/Dβ1/Dβ2 vs. Dα2/Dα3/Dβ1/Dβ2)?
A: The value was -1.07.

Q: What about the “Difference of pEC50 values” (Dα1/Dα2/Dβ1 vs. Dα1/Dα2/Dα3/Dβ1) of the same compound?
A: The value was -1.29.

Q: And the “Difference of pEC50 values” (Dα1/Dα2/Dβ1 vs. Dα1/Dα2/Dα3/Dβ1/Dβ2)?
A: Its value is -0.35.

Q: What about the “Difference of pEC50 values” (Dα1/Dα2/Dβ1 vs. Dα1/Dα2/Dβ1/Dβ2) of the same compound?
A: Its value is -0.78.

Q: And the “Difference of pEC50 values” (Dα1/Dα2/Dβ1 vs. Dα1/Dα3/Dβ1/Dβ2)?
A: Its value is -2.29.

Q: What about the “Difference of pEC50 values” (Dα1/Dα2/Dβ1 vs. Dα2/Dα3/Dβ1) of the same compound?
A: Its value is -1.31.

Q: What about the “Difference of pEC50 values” (Dα1/Dα2/Dβ1 vs. Dα2/Dα3/Dβ1/Dβ2) of the same compound?
A: The value was -1.85.

Q: What about the “Difference of pEC50 values” (Dα1/Dα2/Dβ1 vs. Dα3/Dβ1/Dβ2) of the same compound?
A: The value was -2.05.

Q: What about the “Difference of pEC50 values” (Dα1/Dα3/Dβ1/Dβ2 vs. Dα1/Dα2/Dα3/Dβ1/Dβ2) of the same compound?
A: The value was 1.94.

Q: And the “Difference of pEC50 values” (Dα1/Dα3/Dβ1/Dβ2 vs. Dα1/Dα2/Dβ1/Dβ2)?
A: The value was 1.51.

Q: What about the “Difference of pEC50 values” (Dα1/Dα3/Dβ1 vs. Dα1/Dα2/Dα3/Dβ1/Dβ2) of the same compound?
A: The value was 1.36.

Q: And the “Difference of pEC50 values” (Dα1/Dα3/Dβ1 vs. Dα1/Dα2/Dβ1)?
A: The value was 1.71.

Q: What about the “Difference of pEC50 values” (Dα1/Dα3/Dβ1 vs. Dα1/Dα2/Dβ1/Dβ2) of the same compound?
A: The value was 0.93.

Q: And the “Difference of pEC50 values” (Dα1/Dα3/Dβ1 vs. Dα1/Dβ1/Dβ2)?
A: The value was 1.10.

Q: What about the “Difference of pEC50 values” (Dα1/Dα3/Dβ1 vs. Dα2/Dα3/Dβ1) of the same compound?
A: Its value is 0.40.

Q: What about the “Difference of pEC50 values” (Dα1/Dα3/Dβ1 vs. Dα3/Dβ1/Dβ2) of the same compound?
A: Its value is -0.34.

Q: And the “Difference of pEC50 values” (Dα1/Dβ1/Dβ2 vs. Dα1/Dα2/Dα3/Dβ1/Dβ2)?
A: Its value is 0.26.

Q: What about the “Difference of pEC50 values” (Dα1/Dβ1/Dβ2 vs. Dα1/Dα3/Dβ1/Dβ2) of the same compound?
A: The value was -1.68.

Q: What about the “Difference of pEC50 values” (Dα1/Dβ1/Dβ2 vs. Dα2/Dα3/Dβ1/Dβ2) of the same compound?
A: Its value is -1.24.

Q: What about the “Difference of pEC50 values” (Dα1/Dβ1/Dβ2 vs. Dα3/Dβ1/Dβ2) of the same compound?
A: Its value is -1.44.

Q: And the “Difference of pEC50 values” (Dα1/Dβ1 vs. Dα1/Dα2/Dα3/Dβ1/Dβ2)?
A: Its value is 0.75.

Q: And the “Difference of pEC50 values” (Dα1/Dβ1 vs. Dα1/Dα2/Dβ1)?
A: The value was 1.10.

Q: What about the “Difference of pEC50 values” (Dα1/Dβ1 vs. Dα1/Dα2/Dβ1/Dβ2) of the same compound?
A: Its value is 0.32.

Q: And the “Difference of pEC50 values” (Dα1/Dβ1 vs. Dα1/Dα3/Dβ1/Dβ2)?
A: The value was -1.19.

Q: What about the “Difference of pEC50 values” (Dα1/Dβ1 vs. Dα1/Dβ1/Dβ2) of the same compound?
A: The value was 0.49.

Q: And the “Difference of pEC50 values” (Dα1/Dβ1 vs. Dα2/Dα3/Dβ1)?
A: The value was -0.21.

Q: And the “Difference of pEC50 values” (Dα1/Dβ1 vs. Dα2/Dα3/Dβ1/Dβ2)?
A: The value was -0.75.

Q: What about the “Difference of pEC50 values” (Dα1/Dβ1 vs. Dα3/Dβ1) of the same compound?
A: The value was -0.90.

Q: And the “Difference of pEC50 values” (Dα1/Dβ1 vs. Dα3/Dβ1/Dβ2)?
A: The value was -0.95.

Q: And the “Difference of pEC50 values” (Dα2/Dα3/Dβ1/Dβ2 vs. Dα1/Dα2/Dα3/Dβ1/Dβ2)?
A: The value was 1.50.

Q: What about the “Difference of pEC50 values” (Dα2/Dα3/Dβ1 vs. Dα1/Dα2/Dα3/Dβ1) of the same compound?
A: The value was 0.02.

Q: And the “Difference of pEC50 values” (Dα2/Dα3/Dβ1 vs. Dα1/Dα2/Dα3/Dβ1/Dβ2)?
A: The value was 0.96.

Q: What about the “Difference of pEC50 values” (Dα2/Dα3/Dβ1 vs. Dα1/Dα3/Dβ1/Dβ2) of the same compound?
A: Its value is -0.98.

Q: What about the “Difference of pEC50 values” (Dα2/Dα3/Dβ1 vs. Dα1/Dβ1/Dβ2) of the same compound?
A: The value was 0.70.

Q: And the “Difference of pEC50 values” (Dα2/Dα3/Dβ1 vs. Dα3/Dβ1/Dβ2)?
A: Its value is -0.74.

Q: And the “Difference of pEC50 values” (Dα3/Dβ1/Dβ2 vs. Dα1/Dα2/Dα3/Dβ1/Dβ2)?
A: The value was 1.70.

Q: And the “Difference of pEC50 values” (Dα3/Dβ1/Dβ2 vs. Dα1/Dα2/Dβ1/Dβ2)?
A: The value was 1.27.

Q: And the “Difference of pEC50 values” (Dα3/Dβ1/Dβ2 vs. Dα1/Dα3/Dβ1/Dβ2)?
A: The value was -0.24.

Q: And the “Difference of pEC50 values” (Dα3/Dβ1/Dβ2 vs. Dα2/Dα3/Dβ1/Dβ2)?
A: The value was 0.20.

Q: And the “Difference of pEC50 values” (Dα3/Dβ1 vs. Dα1/Dα2/Dα3/Dβ1)?
A: The value was 0.71.

Q: What about the “Difference of pEC50 values” (Dα3/Dβ1 vs. Dα1/Dα2/Dα3/Dβ1/Dβ2) of the same compound?
A: The value was 1.65.

Q: And the “Difference of pEC50 values” (Dα3/Dβ1 vs. Dα1/Dα2/Dβ1)?
A: The value was 2.00.

Q: What about the “Difference of pEC50 values” (Dα3/Dβ1 vs. Dα1/Dα2/Dβ1/Dβ2) of the same compound?
A: The value was 1.22.

Q: What about the “Difference of pEC50 values” (Dα3/Dβ1 vs. Dα1/Dα3/Dβ1) of the same compound?
A: The value was 0.29.

Q: And the “Difference of pEC50 values” (Dα3/Dβ1 vs. Dα1/Dα3/Dβ1/Dβ2)?
A: The value was -0.29.

Q: What about the “Difference of pEC50 values” (Dα3/Dβ1 vs. Dα1/Dβ1/Dβ2) of the same compound?
A: The value was 1.39.

Q: And the “Difference of pEC50 values” (Dα3/Dβ1 vs. Dα2/Dα3/Dβ1)?
A: Its value is 0.69.

Q: What about the “Difference of pEC50 values” (Dα3/Dβ1 vs. Dα3/Dβ1/Dβ2) of the same compound?
A: The value was -0.05.

Reference: article PMC9934367, “Functional impact of subunit composition and compensation on Drosophila melanogaster nicotinic receptors–targets of neonicotinoids” (PLOS Genetics, 2023)
